In general, melting point refers to the temperature of the solid-liquid transition. As usually defined, the EC50 is the concentration at which the effect is half-maximal. Lower therefore signals greater potency.

Data set [1] has as its target T1, human β3 adrenergic receptor (Homo sapiens, UniProt P13945).
T1 construct: Full length β3 AR clones (402 amino acids) containing the last 6 amino acids of hβ3—AR are prepared; expressed in transfected cells; host or cells: CHO cells
Nature of the data set: cAMP accumulation (SPA) in CHO cells transfected with human β3 adrenergic receptor. The data set is classed as cell-based. The following applies: for EC50: CHO cells expressing human β3-AR, cAMP by SPA, 30 min incubation, 10^-9M to 10^-5M; for IA(β3): maximal response relative to isoproterenol at 10^-5M (IA=% activity compound/% activity isoproterenol). The method, then:
The ability of compounds of this invention to treat or inhibit disorders related to insulin resistance or hyperglycemia was established with representative compounds of this invention in the following standard pharmacological test procedures, which measured the binding selectivity to the β1, β2, and β3 adrenergic receptors. Binding to the receptors was measured in Chinese Hamster ovary (CHO) cells that were transfected with adrenergic receptors. The following briefly summarizes the procedures used and results obtained.
Cloning of Human β3-AR Genomic DNA: cDNA was constructed by ligating four polymerase chain reaction (PCR) products using the following primers: an ATG-Narl fragment, sense primer 5′-[…]3′ and anti-sense primer 5′[…]3′; a Narl-Accl fragment, 5′[…]3′ as sense and 5′[…]3′ as anti-sense primer; an Accli-Styl fragment, sense primer 5′[…]3′ and anti-sense primer 5′[…]3′ and a Styl-TAG fragment, with sense primer 5′[…]3′ and anti-sense primer 5′[…]3′. The corresponding primer sequences are described in Mantzoros, C. S., et. al., Diabetes 45: 909-914 (1996). The four fragments are ligated into a pUC 18 plasmid (Gibco-BRL) and sequenced. Full length β3 AR clones (402 amino acids) containing the last 6 amino acids of hβ3—AR are prepared with the β3-βARpcDNA3 from ATTC.
Binding Procedure: Clones expressing receptor levels of 70 to 110 fmoles/mg protein were used in the test procedures. CHO cells were grown in 24-well tissue culture plates in Dulbecco's Modified Eagle Media with 10% fetal bovine serum, MEM non-essential amino acids, Penicillin-Streptompycin and Geneticin. On the day of test procedure, growth medium was replaced with preincubation media (Dulbecco's Modified Eagle Media and incubated for 30 minutes at 37° C. Preincubation medium was replaced with 0.2 ml treatment medium containing DMEM media containing 250 μM IBMX (isobutyl-1-methylxantine) plus 1 mM ascorbic acid with test compound dissolved in DMSO. Test compounds were tested over a concentration range of 10^−9M to 10^−5M for β3 cells and 10^−8 to 10^−4M for β1 and β2 transfected cells. Isoproterenol (10^−5M) was used as an internal standard for comparison of activity. Cells were incubated at 37° C. on a rocker for 30 min with the β3 cells and 15 min for β1 and β2 cells. Incubation was stopped with the addition of 0.2N HCl and neutralized with 2.5N NaOH. The plates, containing the cells and neutralized media, were stored at −20 degrees celsius until ready to test for cAMP using the SPA test kit (Amersham).
Data Analysis and Results: Data collected from the SPA test procedure were analyzed as per cent of the maximal isoproterenol response at 10^−5M. Activity curves were plotted using the SAS statistical and graphics software. EC50 values were generated for each compound and the maximal response (IA) developed for each compound is compared to the maximal response of isoproternol at 10^−5M from the following formula:
IA=% activity compound/% activity isoproterenol
For orientation: Cyclic AMP is a second messenger, typically raised through Gs and lowered through Gi signalling.

T1 sequence (P13945 whole entry): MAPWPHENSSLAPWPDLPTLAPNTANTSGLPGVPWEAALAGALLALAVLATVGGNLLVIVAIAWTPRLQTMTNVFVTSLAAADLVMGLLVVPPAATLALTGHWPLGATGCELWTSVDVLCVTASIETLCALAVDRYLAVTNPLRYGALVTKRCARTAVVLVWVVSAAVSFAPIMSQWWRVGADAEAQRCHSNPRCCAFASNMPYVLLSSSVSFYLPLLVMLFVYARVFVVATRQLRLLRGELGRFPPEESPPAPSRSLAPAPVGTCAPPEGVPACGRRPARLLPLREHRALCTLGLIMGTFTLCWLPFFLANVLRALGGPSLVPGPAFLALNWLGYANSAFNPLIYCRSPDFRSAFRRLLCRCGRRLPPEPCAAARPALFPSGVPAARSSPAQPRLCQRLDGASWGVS

As to `O=S(=O)(Cc1noc(-c2ccccc2)n1)c1ccc(CCNCC(O)c2ccc(OC(F)(F)F)cc2)cc1` (stereo not drawn) [Example 8, 2-[(4{[(5-phenyl-1,2,4-oxadiazol-3-yl)methyl]sulfonyl}phenethyl)amino]-1-[4-(trifluoromethoxy)phenyl]-1-ethanol], the melting point lay in the range of 125 to 127 °C.
The compound `Cc1noc(C)c1-c1nc(CS(=O)(=O)c2ccc(CCNC[C@H](O)COc3ccc(O)cc3)cc2)no1` [Example 12, 4-[((2S)-3-{[4-({[5-(3,5-dimethyl-4-isoxazolyl)-1,2,4-oxadiazol-3-yl]methyl}sulfonyl)phenethyl]amino}-2-hydroxypropyl)oxy]phenol] came in with an EC50 in data set [1] of 70 nM.
As for `CC(C)(C)c1nc(CS(=O)(=O)c2ccc(CCNC[C@H](O)COc3ccc(O)cc3)cc2)no1` [Example 15, 4-[((2S)-3-{[4-({[5-(tert-butyl)-1,2,4-oxadiazol-3-yl]methyl}sulfonyl)phenethyl]amino}-2-hydroxypropyl)oxy]phenol], in data set [1], a half-maximal response (EC50) required 28 nM and the “IA(β3)” value is recorded as 0.92.
As to `COc1ccc(-c2nc(CS(=O)(=O)c3ccc(CCNC[C@H](O)COc4ccc(O)c(C)c4)cc3)no2)cc1` [Example 19, 4-[((2S)-2-hydroxy-3-{[4-({[5-(4-methoxyphenyl)-1,2,4-oxadiazol-3-yl]methyl}sulfonyl)phenethyl]amino}propyl)oxy]-2-methylphenol], in data set [1], the EC50 came out at 68 nM and the “IA(β3)” value was 0.95.
Take `[O-][S+](Cc1noc(Cc2ccccc2)n1)c1ccc(CCNC[C@H](O)COc2ccc(O)cc2)cc1` (stereo partly drawn) [Example 24, 4-({(2S)-3-[(4-{[(5-benzyl-1,2,4-oxadiazol-3-yl)methyl]sulfinyl}phenethyl)amino]-2-hydroxypropyl}oxy)phenol]: the melting point fell in the range of 51 to 57 °C. Also, in data set [1], the response was half-maximal at 431 nM (EC50) and the “IA(β3)” value is on record as 0.62.
For the compound `COc1ccc(-c2nc(CS(=O)(=O)c3ccc(CCNC[C@H](O)c4ccc(O)c(NS(C)(=O)=O)c4)cc3)no2)cc1` [Example 27, N-[2-hydroxy-5-((1R)-1-hydroxy-2-{[4-({[5-(4-methoxyphenyl)-1,2,4-oxadiazol-3-yl]methyl}sulfonyl)phenethyl]amino}ethyl)phenyl]methanesulfonamide], in data set [1], a half-maximal effect (EC50) was put at 25 nM and the “IA(β3)” value is 1.
Regarding `COc1ccc(-c2nc(CS(=O)(=O)c3ccc(CCNC[C@H](O)COc4ccc(O)cc4)cc3)no2)cc1` [Example 29, 4[((2S)-2-hydroxy-3-{[4-({[5-(4-methoxyphenyl)-1,2,4-oxadiazol-3-yl]methyl}sulfonyl)phenethyl]amino}propyl)oxy]phenol], in data set [1], the midpoint of the response, the EC50, lay at 33 nM and the “IA(β3)” value is given as 1.1.
As for `CC(C)(C)c1nc(CSc2ccc(CCNC[C@H](O)COc3ccc(O)cc3)cc2)no1` [Example 32, (2S)-4-(3-{2-[4-(5-tert-Butyl-[1,2,4]oxadiazol-3-ylmethylsulfanyl) -phenyl]-ethylamino}-2-hydroxy-propoxy)-phenol], in data set [1], the EC50 is 330 nM and the “IA(β3)” value was 1.2.
The compound `Cc1ccc(-c2noc(CSc3ccc(CCNC[C@H](O)COc4cccc5[nH]nnc45)cc3)n2)cc1` [Example 33, (2S)-1-(1H-1,2,3-benzotriazol-4-yloxy)-3-{[4-({[3-(4-methylphenyl)-1,2,4-oxadiazol-5-yl]methyl}sulfanyl)phenethyl]amino}-2-propanol] came in with a melting point of 110 °C. Further, in data set [1], the EC50 came out at 789 nM and the “IA(β3)” value is reported as 0.44.

The values above are taken from US6458817B1, “Substituted arylsulfides, arylsulfoxides and arylsulfones as beta-3 adrenergic receptor agonists” (Wyeth, priority 2000, dated 2002).
